What all share (experiment): NCI anticancer screen, dose series, 48 h
Test [1] has as its system ACHN renal.
In test [2] the test system is DU-145 prostate.
For test [3], the system named is HOP-92 NSCLC.
For test [4], the system named is KM12 colon.
The test system of test [5] is NCI-H23 lung.
For test [6], the system named is OVCAR-4 ovarian.
In test [7] the test system is OVCAR-5 ovarian.
Test [8] has as its system RPMI-8226 leukemia.
The subject of test [9] is SK-MEL-2 melanoma.
The test system of test [10] is MALME-3M melanoma.

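Briefly, cells in 96-well plates were exposed to five compound concentrations for 48 h, and endpoints were estimated by linear interpolation. At the GI50, growth is halved. TGI: total growth inhibition.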

Consider `O=C(O)CC(CC(=O)O)n1cccc1`, for which the TGI in [1], in test [2], in test [3], in [4], in test [5] and in test [6] was over 100 µM each time. Besides, the TGI in test [7], in test [8] and in [9] was over 100 µM throughout.

Take `Cc1ncc2c(n1)CCC1=C2OS(=O)(=O)CC1N(C)C` (stereo not given): the TGI in test [1], in test [2], in test [4], in test [5], in [6] and in [7] was over 100 µM throughout. In test [8], this molecule registered a TGI of over 100 µM.

Take `CC(C)OC(=O)NNc1c(Cl)cc(Cl)cc1Cl`: the TGI was over 100 µM in test [1]; over 100 µM in test [2]; over 100 µM in test [3]; over 100 µM in test [4]; 74.2 µM in test [10]; over 100 µM in test [5]. For the same molecule, the TGI in test [7], in test [8] and in [9] was over 100 µM throughout.

With `Cc1ccc(-c2csc3ncnc(Nc4cccc(O)c4)c23)cc1`, the GI50 in [2] is 42.1 µM; in test [3], 14.3 µM; in [4], 25.7 µM; in test [5], 22.6 µM; in [6] it was 44.6 µM; in test [7] it was 25.5 µM. Also, the GI50 in test [8] is 14.5 µM; in test [9] it was 22.4 µM. In addition, the TGI in [2] is over 100 µM; in [3], 35.9 µM; in test [4], 69 µM; in [5], 46.5 µM; in test [6] it was over 100 µM; in test [7] it was 69.6 µM. Moreover, the TGI in [8] is 37 µM; in test [9], 62.4 µM.

`CN(COC(=O)C(C)(C)C)c1nc(N(C)COC(=O)C(C)(C)C)nc(N(C)COC(=O)C(C)(C)C)n1`: the TGI was over 100 µM in test [1]; over 100 µM in test [2]; over 100 µM in [4]; 98.5 µM in [10]; over 100 µM in [5]; over 100 µM in test [6]. Moreover, the TGI in test [7] and in test [9] was over 100 µM each time.

`COc1ccc(/C(=N/O)c2cc(F)c(F)c(OC)c2F)cc1O`: the GI50 in [1] is 0.94 µM; in test [2], 1.88 µM; in test [3], 18.9 µM; in test [4], 0.396 µM; in test [5], 1.9 µM; in test [6] it was 9.1 µM. Moreover, the GI50 in test [8] is 0.43 µM; in [9], 0.421 µM. The TGI in test [1], in [2], in test [3], in test [4], in test [5] and in test [6] was over 100 µM throughout. In addition, the TGI in test [8] is 23.7 µM; in test [9], over 100 µM.

For the molecule `O=C1CC[C@@H]2[C@H]3CCC(=O)c4c3c(c3cccc(O)c3c4O)O[C@@]23C(=O)c2cccc(O)c2C(O)=C13`, the GI50 in [1], in test [2], in test [4], in test [5], in [7] and in [8] was over 100 µM each time. For the same molecule, in test [9], the GI50 was 74.4 µM. Further, the TGI in test [1], in [2], in [4], in test [5], in test [7] and in test [8] was over 100 µM each time. The molecule further yielded a TGI in [9] of over 100 µM.

As for `O=C(Nc1cccc2[nH]c(C(F)(F)F)nc12)c1ccc(Br)cc1F`, the GI50 in test [1] was 3.08 µM; in test [2], 4.87 µM; in test [3], 1.38 µM; in test [4] it was 3.29 µM; in test [10], 2.86 µM; in [5], 3.12 µM. The GI50 is 5.19 µM in test [7], 2.44 µM in test [8] and 0.32 µM in [9]. Also, the TGI in test [1] was 11.1 µM; in [2], 20.5 µM; in [3], 4.1 µM; in [4] it was 12 µM; in test [10] it was 6.82 µM; in test [5], 10.6 µM. In addition, the TGI in [7] stood at 23.5 µM; in [8], 7.9 µM; in test [9] it was 2.12 µM.

For `COc1cc(/C=C2\CC3C4CC=C5C[C@@H](N6CCCC6)CC[C@]5(C)C4CC[C@]3(C)[C@H]2OC(C)=O)ccc1OCCCn1ccnc1` (stereo not given in full), the GI50 in test [1] was 0.383 µM; in [2], 0.17 µM; in [3], 6.09 µM; in [4], 0.63 µM; in test [5], 4 µM; in test [7], 7.15 µM. For the same molecule, the GI50 in test [8] is 0.343 µM; in test [9] it was 7.54 µM. The TGI in test [1] amounted to 1.09 µM; in [2], 1.49 µM; in test [3] it was 17.7 µM; in test [4], 4.02 µM; in test [5], 7.96 µM; in [7], 15.3 µM. Moreover, the figures for the TGI in [8] and in test [9] were over 14 µM and over 50 µM, respectively.

With `O=C1c2ccccc2-n2c1nc1ccc([N+](=O)[O-])cc1c2=O`, the TGI in test [1], in test [2], in test [3], in test [4], in [10] and in [5] was over 100 µM throughout. Moreover, the TGI in test [7] was over 100 µM; in [8], 84.4 µM.

As to `Cc1nc2sc(C(=O)Nc3cccc4c3OCCO4)c(N)c2cc1C(C)O` (stereo not given), the GI50 in [1] is 5.54 µM; in test [2], 8.31 µM; in [3], 5.52 µM; in test [4] it was 3.85 µM; in [5], 6.67 µM; in [6] it was over 100 µM. In addition, the GI50 was 43.2 µM in test [7] and 4.16 µM in [8]. Besides, the TGI in [1], in test [2], in test [3], in [4], in [5] and in test [6] was over 100 µM in each case. The TGI in [7] and in test [8] was over 100 µM throughout.

In the case of `C[C@H]1CCC/C=C/[C@@H]2C[C@H](O)C[C@H]2[C@H](O)C(O)C(O)C(=O)O1` (stereo not given in full), the GI50 in test [1] was 3.43 µM; in [2] it was 6.69 µM; in [4], 0.396 µM; in [10] it was 1.56 µM; in test [5], 2.23 µM; in test [7], 6.24 µM. Besides, the GI50 in [8] is 2.66 µM; in test [9], 3.81 µM. The TGI in test [1] is 20.9 µM; in [2] it was over 100 µM; in test [4], 1.38 µM; in [10], 5.57 µM; in [5] it was over 100 µM; in test [7], over 100 µM. For the same molecule, the TGI in test [8] was 14.9 µM; in [9], over 23.9 µM.

For `NC(=O)c1c(NC(=O)c2ccc(C(F)(F)F)cc2Cl)sc2c1CCC(=O)C2`, the GI50 was 0.322 µM in test [1]; 3.83 µM in test [2]; 0.426 µM in test [3]; 0.382 µM in test [4]; 0.292 µM in test [10]; 0.288 µM in test [5]. The figures for the GI50 in test [7] and in [9] were 0.468 µM and 1.87 µM, respectively. In addition, the TGI in test [1] came out at 1.04 µM; in test [2] it was 25 µM; in test [3] it was 2.88 µM; in test [4], 1.73 µM; in test [10], 1.39 µM; in [5] it was 1.68 µM. Moreover, the TGI in [7] was found to be 2.33 µM; in [9], 5.37 µM.

Take `Nc1ncnc2c1ncn2C1(CO)OC(CO)C(O)C1O` (stereo not given): the TGI in test [1], in test [3], in test [4], in [10], in test [5] and in test [6] was over 100 µM in each case. Besides, the TGI in test [7], in test [8] and in test [9] was over 100 µM each time.

On to `O=C(N/N=C/c1coc2ccc(Cl)cc2c1=O)c1cc(O)c(O)c(O)c1`, for which the GI50 in test [1] was 22.1 µM; in test [2] it was 30.7 µM; in test [3] it was 31.9 µM; in [4], 21.5 µM; in test [5], 16.2 µM; in test [6] it was 98.4 µM. Also, the GI50 in test [7] is 24.6 µM; in test [8], 28.5 µM; in test [9], over 100 µM. Further, the TGI in test [1] is 52.5 µM; in [2], over 100 µM; in test [3], over 100 µM; in test [4] it was 69.1 µM; in test [5] it was 48.1 µM; in [6] it was over 100 µM. Further, the TGI in test [7] is 74.9 µM; in [8], over 100 µM; in [9], over 100 µM.

As for `CN1C=C(C(N)=O)Cc2ccsc21`, the TGI in test [1], in [3], in [4], in [10], in test [5] and in test [6] was over 100 µM each time. For the same molecule, the TGI in [7], in [8] and in test [9] was over 100 µM each time.

(Values after PubChem BioAssay (NCI).)
